Test results published in patent publication US9951060B2, “2-acylaminothiazole derivative or salt thereof” (ASTELLAS PHARMA INC., priority 2014, dated 2018).
Where a name gives a salt, the structure may show the parent alone.

Assays:
[1] = target: T1, human c-Mpl-introduced Ba/F3 cell (Homo sapiens, UniProt P40238); experiment: Test Example 2: human c-Mpl-introduced Ba/F3 cell proliferative activity; format: cell-based; details: concentration exhibiting 30% proliferation; 100% = positive control (Example 315 of Patent Document 1) at 1 μM
T1 construct: expressed in transfected cells
T1 sequence (P40238 26-635): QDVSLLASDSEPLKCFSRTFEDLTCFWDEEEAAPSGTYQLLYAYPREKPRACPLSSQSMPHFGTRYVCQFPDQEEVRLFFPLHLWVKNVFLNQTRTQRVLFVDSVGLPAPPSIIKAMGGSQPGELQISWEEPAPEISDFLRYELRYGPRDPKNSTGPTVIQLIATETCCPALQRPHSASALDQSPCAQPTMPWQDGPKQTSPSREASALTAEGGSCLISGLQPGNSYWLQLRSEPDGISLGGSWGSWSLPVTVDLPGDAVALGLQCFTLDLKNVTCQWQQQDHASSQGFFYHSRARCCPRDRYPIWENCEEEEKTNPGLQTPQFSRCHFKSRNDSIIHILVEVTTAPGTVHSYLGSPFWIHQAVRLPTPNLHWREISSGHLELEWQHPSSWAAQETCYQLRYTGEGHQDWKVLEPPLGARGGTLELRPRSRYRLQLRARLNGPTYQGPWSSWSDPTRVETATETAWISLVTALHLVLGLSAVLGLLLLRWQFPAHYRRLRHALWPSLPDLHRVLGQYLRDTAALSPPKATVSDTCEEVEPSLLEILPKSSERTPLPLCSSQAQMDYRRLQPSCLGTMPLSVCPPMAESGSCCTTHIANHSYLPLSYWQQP
Description: Test Example 2: Evaluation of Human c-Mpl-Introduced Ba/F3 Cell Proliferative Activity
The human c-Mpl-introduced Ba/F3 cell proliferation action was measured by the following method.
As a positive control, 1-(5-{[4-(4-chlorothiophen-2-yl)-5-{[(2R)-2-methylpyrrolidin-1-yl]methyl}-1,3-thiazol-2-yl]carbamoyl}-3-fluoropyridin-2-yl)piperidine-4-carboxylic acid hydrochloride disclosed as Example 315 in Patent Document 1, represented by the formula (A1) above, was used. Further, it is known that the compound has a good human c-Mpl-introduced Ba/F3 cell proliferative activity as disclosed in Table 1 in Patent Document 1.
a) Construction of Vector Expressing Human c-Mpl Receptor
A human c-Mpl receptor gene (GenBank Accession No.: M90102.1) was transfected into an expression vector pEF-BOS (Nucleic Acids Research, 18: pp 5322 (1990)).
b) Construction of Cell Stably Expressing Human c-Mpl Receptor
A vector expressing a human c-Mpl receptor was introduced into a Ba/F3 cell (RIKEN BRC: RCB0805). For the introduction, an electroporation method was used. pEF-BOS-c-mpl (10 μg), pSV2bsr (1 μg, Kaken Pharmaceutical Co., Ltd.) and 1×10^7 of Ba/F3 cells were put into cuvettes with a gap width of 0.4 cm and electroporated under a condition of 1.5 kV (25 μF) in a Gene Pulser (registered trademark) (BioRad). The cells were incubated in an RPMI-1640 medium supplemented with a 0.5% WEHI conditioned medium (BD Biosciences) and 10% fetal bovine serum for 3 days, and thereafter, and the cells were incubated for 30 days in an RPMI-1640 medium, to which 10 μg/mL blasticidin had been further added, thereby acquiring a drug-resistant clone.
c) Measurement of Cell Proliferative Activity
The cells obtained in b) above were dispensed into an RPMI-1640 medium supplemented with a 0.5% WEHI conditioned medium and 10% fetal bovine serum, and used. The day before the experiment, the test substances (final concentration of 100 nM to 10 μM) which had been dissolved in a medium for assay (an RPMI-1640 medium supplemented with 10% fetal bovine serum) were added to a 384-well plate (Model No. 781185, Greiner bio-one). The cells after the medium had been replaced with the medium for assay were dispensed to a 384-well plate to which the test substance had been added, to 1×10^4 cells/well, and incubated overnight at 37° C. and 5% CO2. On the experiment day, a solution of a Cell counting kit (Dojindo Laboratories) was added to each well of the 384-well plate, and the cells were incubated for about 5 hours at 37° C. and 5% CO2. Thereafter, the absorbance (an absorbance wavelength of 450 nm) of each well was measured using Safire^2 (registered trademark) (TECAN), and used as an index for the number of cells. Further, as a negative control, a well to which the test substances had not been added was prepared.
By taking the absorbance of the well to which the test substance had been not added as 0% and taking the absorbance in a case where the positive control had been added to a final concentration of 1 μM as 100%, a cell proliferation rate (%) was calculated from the absorbance of the well to which the test substance had been added.

[2] = test system: pelvic nerve stimulation-induced elevation of intravesical pressure; experiment: Test Example 4: effect on pelvic nerve stimulation-induced elevation of intravesical pressure in anesthetized rats; format: in vivo, rat; details: 3 mg/kg intravenous; maximum effect within one hour; anesthetized SD female rats; pre-treatment = 100%
Description: Test Example 4: Effect on Pelvic Nerve Stimulation-Induced Elevation of Intravesical Pressure in Anesthetized Rats
The effect of the Example compounds of the present invention in the pelvic nerve electrical stimulation-induced elevation of intravesical pressure using rats as an action of nerve stimulation-dependent bladder contraction in vivo was measured by the following method. That is, SD female rats (Japan SLC, Inc.) were used and its lower abdomen was dissected at the midline under pentobarbital anesthesia (50 mg/kg ip). After ligating and cutting the ureter on both sides, a cannula (PE-50) for measuring the intravesical pressure was inserted into the bladder from the external urethral opening and fixed by a clip. After injecting about 200 μL of saline through the cannula that had been inserted into the bladder, the other side was connected to a pressure transducer to measure the intravesical pressure. Under a stereoscopic microscope observation, the pelvic nerve in the vicinity of the bladder was peeled and an electrode for nerve stimulation (unique Medical) was placed. The abdominal cavity was filled with mineral oil (MP BIOMEDICALS). After placing in a post-operative stabilization period, the pelvic nerve was subjected to electrical stimulation (stimulation voltage: 10 V, stimulation frequency: 8 Hz, pulse width: 0.3 msec, and stimulation time: 10 seconds) to elicit the elevation of intravesical pressure, using an electrical stimulator (Nihon Kohden). By repeating the electrical stimulation at an interval of 2 minutes while adjusting the voltage, the voltage was adjusted to elicit about 50% to 70% elevation of intravesical pressure elicited at 10 V. Thereafter, by repeating the electrical stimulation at an interval of 10 minutes, the increase in the intravesical pressure by electrical stimulation was stabilized three times or more, and the test substance (an administration amount of 3 mg/kg) was then administered from the catheter detained in the vein at a volume of 1 mL/kg, thus measuring an effect of the elevation of the intravesical pressure of the test substance for 1 hour. The test substance was dissolved in water supplemented with 10% dimethylsulfoxide and 10% Cremophor.
The response was applied to a personal computer through a PowerLab (registered trademark) and analyzed by LabChart (registered trademark). The AUC of each elevation of the intravesical pressure was calculated, the intravesical pressure elevation rate (% of pre) after the treatment with the test substance was calculated by taking an average value of the values measured three times before the treatment with the test substance as 100%, and the maximum effect during a period within one hour after administration of the compound was considered as the effect of the test substance.
The elevation rates (% of pre) of the intravesical pressure when some Example compounds were administered at 3 mg/kg are shown in Table 4.

| Structure (SMILES) | human c-Mpl-introduced Ba/F3 cell proliferative activity EC30 [1] [µM] | Increase rate (% of pre) of intravesical pressure [2] |
| --- | --- | --- |
| C[C@@H]1CCCN1Cc1sc(NC(=O)c2cnc(N3CCN(CCC(=O)O)C[C@H]3C)cn2)nc1-c1cc(C(F)(F)F)cs1 [Example 3, 3-[(3R)-3-methyl-4-{5-[(5-{[(2R)-2-methylpyrrolidin-1-yl]methyl}-4-[4-(trifluoromethyl)thiophen-2-yl]-1,3-thiazol-2-yl)carbamoyl]pyrazin-2-yl}piperazin-1-yl]propanoic acid dihydrochloride] | 0.78 | 251 % of pre |
| COc1ccc(-c2nc(NC(=O)c3cnc(N4CCN(CCC(=O)O)[C@@H](C)C4)cn3)sc2CN2CCC[C@H]2C)cc1C(F)(F)F [Example 10] | >10 | 145 % of pre |
| CC[C@@H]1CCCN1Cc1sc(NC(=O)c2cnc(N3CCN(CCC(=O)O)C[C@@H]3C)cn2)nc1-c1cc(Cl)cs1 [Example 28] | 5.3 | 184 % of pre |
| CC[C@@H]1CCCN1Cc1sc(NC(=O)c2cnc(N3CCN(CCC(=O)O)CC3)cn2)nc1-c1ccc(OC)c(C(F)(F)F)c1 [Example 42] | >10 | 149 % of pre |
| COc1c(Cl)cc(-c2nc(NC(=O)c3cnc(N4CCN(CCC(=O)O)CC4)cn3)sc2CN2CCC[C@H]2C)cc1Cl [Example 43] | >10 | 125 % of pre |
| Cc1cc(OC(F)(F)F)cc(-c2nc(NC(=O)c3cnc(N4CCN(C(C)C(=O)O)CC4)cn3)sc2CN2CCC[C@H]2C)c1 (stereo partly shown) [Example 48] | >10 | 121 % of pre |
| C[C@@H]1CCCN1Cc1sc(NC(=O)c2cnc(N3CCN(CCC(=O)O)CC3)cn2)nc1-c1cc(Cl)cs1 [Example 50] | 2.3 | 207 % of pre |
| C[C@@H]1CCCN1Cc1sc(NC(=O)c2cnc(N3CCN(CC(=O)O)CC3)cn2)nc1-c1cc(Cl)cs1 [Example 51] | 2.6 | 223 % of pre |
| C[C@@H]1CCCN1Cc1sc(NC(=O)c2cnc(N3CCN(CC(=O)O)CC3)cn2)nc1-c1ccc(F)c(C(F)(F)F)c1 [Example 61] | 1.3 | 129 % of pre |

Now from value to molecule, other results behind:

| human c-Mpl-introduced Ba/F3 cell proliferative activity EC30 [1] [µM] | Structure (SMILES) | Increase rate (% of pre) of intravesical pressure [2] |
| --- | --- | --- |
| >10 | C[C@@H]1CCCN1Cc1sc(NC(=O)c2cnc(N3CCN(CCC(=O)O)CC3)cn2)nc1-c1cc(Cl)cc(C(F)(F)F)c1 [Example 11] | 132 % of pre |
| >10 | C[C@@H]1CCCN1Cc1sc(NC(=O)c2cnc(N3CCN(CC(=O)O)CC3)cn2)nc1-c1cc(Cl)cc(C(F)(F)F)c1 [Example 13] | 132 % of pre |
| >10 | C[C@@H]1CCCN1Cc1sc(NC(=O)c2cnc(N3CCN(CCC(=O)O)CC3)cn2)nc1-c1ccc(Cl)c(C(F)(F)F)c1 [Example 15] | 142 % of pre |
| >10 | C[C@@H]1CCCN1Cc1sc(NC(=O)c2cnc(N3CCN(CCCC(=O)O)CC3)cn2)nc1-c1cc(F)cc(C(F)(F)F)c1 [Example 21] | 155 % of pre |
| >10 | C[C@@H]1CCCN1Cc1sc(NC(=O)c2cnc(N3CCN(CCC(=O)[O-])CC3)cn2)nc1-c1cc(C#N)cc(C(F)(F)F)c1.[Na+] [Example 34] | 134 % of pre |
| >10 | Cc1cc(OC(F)(F)F)cc(-c2nc(NC(=O)c3cnc(N4CCN(CCC(=O)O)CC4)cn3)sc2CN2CCC[C@H]2C)c1 [Example 46] | 126 % of pre |
| >10 | C[C@@H]1CCCN1Cc1sc(NC(=O)c2cnc(N3CCN(CCC(=O)O)CC3)cn2)nc1-c1cc(F)cc(C(F)(F)F)c1 [Example 49] | 172 % of pre |
| >10 | COc1cc(-c2nc(NC(=O)c3cnc(N4CCN(CCC(=O)O)CC4)cn3)sc2CN2CCC[C@H]2C)cc(C(F)(F)F)c1 [Example 52] | 129 % of pre |
| 9.7 | C[C@@H]1CCCN1Cc1sc(NC(=O)c2cnc(N3CCN(CCC(=O)O)CC3)cn2)nc1-c1ccc(F)c(C(F)(F)F)c1 [Example 60] | 130 % of pre |
| >10 | CC(C(=O)O)N1CCN(c2cnc(C(=O)Nc3nc(-c4cc(F)cc(C(F)(F)F)c4)c(CN4CCC[C@H]4C)s3)cn2)CC1 (stereo partly shown) [Example 64] | 135 % of pre |
| >10 | CC[C@@H]1CCCN1Cc1sc(NC(=O)c2cnc(N3CCN(CCC(=O)O)CC3)cn2)nc1-c1cccc(C(F)(F)F)c1 [Example 65] | 128 % of pre |
